target: T1, α-glucosidase (Saccharomyces cerevisiae, UniProt P53341); test: α-Glucosidase inhibition assay; format: biochemical; conditions: not given
T1 sequence (P53341 whole entry): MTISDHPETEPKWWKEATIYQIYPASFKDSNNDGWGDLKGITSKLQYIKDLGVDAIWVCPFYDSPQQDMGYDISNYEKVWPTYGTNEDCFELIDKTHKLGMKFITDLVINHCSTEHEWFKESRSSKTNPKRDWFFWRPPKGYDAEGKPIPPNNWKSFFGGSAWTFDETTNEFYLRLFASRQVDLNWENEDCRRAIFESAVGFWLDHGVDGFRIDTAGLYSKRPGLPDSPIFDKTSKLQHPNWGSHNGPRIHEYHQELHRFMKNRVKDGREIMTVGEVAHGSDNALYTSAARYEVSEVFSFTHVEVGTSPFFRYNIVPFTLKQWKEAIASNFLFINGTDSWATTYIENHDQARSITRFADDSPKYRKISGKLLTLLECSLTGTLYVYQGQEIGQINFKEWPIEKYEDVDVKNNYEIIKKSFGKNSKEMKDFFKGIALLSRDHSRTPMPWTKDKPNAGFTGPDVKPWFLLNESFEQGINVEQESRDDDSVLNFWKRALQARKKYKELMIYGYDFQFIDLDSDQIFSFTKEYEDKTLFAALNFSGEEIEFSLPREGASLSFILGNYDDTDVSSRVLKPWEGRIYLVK

| Structure (SMILES) | IC50 |
| --- | --- |
| N#Cc1c(-c2ccccc2)c(N)c(-c2ccccc2)n2nc(-c3ccccc3)nc12 [Compound 15a, 6-Amino-2,5,7-triphenyl-^1,2,4triazolo[1,5-a]pyridine-8-carbonitrile] | 20.32 ± 0.11 µM |
| COc1ccc(-c2c(N)c(-c3ccccc3)c(C#N)c3nc(-c4ccccc4)nn23)cc1 [Compound 15b, 6-Amino-5-(4-methoxyphenyl)-2,7-diphenyl-^1,2,4triazolo[1,5-a]pyridine-8-carbonitrile] | 25.5 ± 0.23 µM |
| N#Cc1c(-c2ccccc2)c(N)c(-c2ccc(Cl)cc2)n2nc(-c3ccccc3)nc12 [Compound 15c, 6-Amino-5-(4-chlorophenyl)-2,7-diphenyl-^1,2,4triazolo[1,5-a]pyridine-8-carbonitrile] | 9.69 ± 0.09 µM |
| N#Cc1c(-c2ccccc2)c(N)c(-c2cccc(Cl)c2)n2nc(-c3ccccc3)nc12 [Compound 15d, 6-Amino-5-(3-chlorophenyl)-2,7-diphenyl-^1,2,4triazolo[1,5-a]pyridine-8-carbonitrile] | 45.54 ± 0.25 µM |
| N#Cc1c(-c2ccccc2)c(N)c(-c2ccccc2Cl)n2nc(-c3ccccc3)nc12 [Compound 15e, 6-Amino-5-(2-chlorophenyl)-2,7-diphenyl-^1,2,4triazolo[1,5-a]pyridine-8-carbonitrile] | 60.64 ± 0.18 µM |
| N#Cc1c(-c2ccccc2)c(N)c(-c2ccc(Br)cc2)n2nc(-c3ccccc3)nc12 [Compound 15f, 6-Amino-5-(4-bromophenyl)-2,7-diphenyl-^1,2,4triazolo[1,5-a]pyridine-8-carbonitrile] | 32 ± 0.32 µM |
| N#Cc1c(-c2ccccc2)c(N)c(-c2cccs2)n2nc(-c3ccccc3)nc12 [Compound 15g, 6-Amino-2,7-diphenyl-5-(thiophen-2-yl)-^1,2,4triazolo[1,5-a]pyridine-8-carbonitrile] | 45.73 ± 0.29 µM |
| Cc1ccc(-c2c(N)c(-c3ccccc3)n3nc(-c4ccccc4)nc3c2C#N)cc1 [Compound 15h, 6-Amino-2,5-diphenyl-7-(p-tolyl)-^1,2,4triazolo[1,5-a]pyridine-8-carbonitrile] | 14.4 ± 0.43 µM |
| COc1ccc(-c2c(N)c(-c3ccc(C)cc3)c(C#N)c3nc(-c4ccccc4)nn23)cc1 [Compound 15i, 6-Amino-5-(4-methoxyphenyl)-2-phenyl-7-(p-tolyl)-^1,2,4triazolo[1,5-a]pyridine-8-carbonitrile] | 8.43 ± 0.25 µM |
| Cc1ccc(-c2c(N)c(-c3ccc(Cl)cc3)n3nc(-c4ccccc4)nc3c2C#N)cc1 [Compound 15j, 6-Amino-5-(4-chlorophenyl)-2-phenyl-7-(p-tolyl)-^1,2,4triazolo[1,5-a]pyridine-8-carbonitrile] | 6.6 ± 0.09 µM |
| Cc1ccc(-c2c(N)c(-c3ccc(Br)cc3)n3nc(-c4ccccc4)nc3c2C#N)cc1 [Compound 15k, 6-Amino-5-(4-bromophenyl)-2-phenyl-7-(p-tolyl)-^1,2,4triazolo[1,5-a]pyridine-8-carbonitrile] | 29.89 ± 0.17 µM |
| Cc1ccc(-c2c(N)c(-c3cccs3)n3nc(-c4ccccc4)nc3c2C#N)cc1 [Compound 15l, 6-Amino-2-phenyl-5-(thiophen-2-yl)-7-(p-tolyl)-^1,2,4triazolo[1,5-a]pyridine-8-carbonitrile] | 21.49 ± 0.09 µM |
| COc1ccc(-c2c(N)c(-c3ccccc3)n3nc(-c4ccccc4)nc3c2C#N)cc1 [Compound 15m, 6-Amino-7-(4-methoxyphenyl)-2,5-diphenyl-^1,2,4triazolo[1,5-a]pyridine-8-carbonitrile] | 9.18 ± 0.12 µM |
| COc1ccc(-c2c(N)c(-c3ccc(OC)cc3)n3nc(-c4ccccc4)nc3c2C#N)cc1 [Compound 15n, 6-Amino-5,7-bis(4-methoxyphenyl)-2-phenyl-^1,2,4triazolo[1,5-a]pyridine-8-carbonitrile] | 22.31 ± 0.08 µM |
| COc1ccc(-c2c(N)c(-c3ccc(Cl)cc3)n3nc(-c4ccccc4)nc3c2C#N)cc1 [Compound 15o, 6-Amino-5-(4-chlorophenyl)-7-(4-methoxyphenyl)-2-phenyl-^1,2,4triazolo[1,5-a]pyridine-8-carbonitrile] | 7.64 ± 0.13 µM |
| COc1ccc(-c2c(N)c(-c3cccs3)n3nc(-c4ccccc4)nc3c2C#N)cc1 [Compound 15p, 6-Amino-7-(4-methoxyphenyl)-2-phenyl-5-(thiophen-2-yl)-^1,2,4triazolo[1,5-a]pyridine-8-carbonitrile] | 36.33 ± 0.09 µM |
| N#Cc1c(-c2ccc(Cl)cc2)c(N)c(-c2ccccc2)n2nc(-c3ccccc3)nc12 [Compound 15q, 6-Amino-7-(4-chlorophenyl)-2,5-diphenyl-^1,2,4triazolo[1,5-a]pyridine-8-carbonitrile] | 38.18 ± 0.14 µM |
| COc1ccc(-c2c(N)c(-c3ccc(Cl)cc3)c(C#N)c3nc(-c4ccccc4)nn23)cc1 [Compound 15r, 6-Amino-7-(4-chlorophenyl)-5-(4-methoxyphenyl)-2-phenyl-^1,2,4triazolo[1,5-a]pyridine-8-carbonitrile] | 49.96 ± 0.11 µM |
| N#Cc1c(-c2ccc(Cl)cc2)c(N)c(-c2ccc(Cl)cc2)n2nc(-c3ccccc3)nc12 [Compound 15s, 6-Amino-5,7-bis(4-chlorophenyl)-2-phenyl-^1,2,4triazolo[1,5-a]pyridine-8-carbonitrile] | 31.49 ± 0.08 µM |
| N#Cc1c(-c2ccc(Cl)cc2)c(N)c(-c2cccs2)n2nc(-c3ccccc3)nc12 [Compound 15t, 6-Amino-7-(4-chlorophenyl)-2-phenyl-5-(thiophen-2-yl)-^1,2,4triazolo[1,5-a]pyridine-8-carbonitrile] | 75.63 ± 0.44 µM |
| COc1ccc(-c2nc3c(C#N)c(-c4ccccc4)c(N)c(-c4ccccc4)n3n2)cc1 [Compound 15u, 6-Amino-2-(4-methoxyphenyl)-5,7-diphenyl-^1,2,4triazolo[1,5-a]pyridine-8-carbonitrile] | 14.8 ± 0.22 µM |
| N#Cc1c(-c2ccccc2)c(N)c(-c2ccccc2)n2nc(-c3ccc(Cl)cc3)nc12 [Compound 15v, 6-Amino-2-(4-chlorophenyl)-5,7-diphenyl-^1,2,4triazolo[1,5-a]pyridine-8-carbonitrile] | 25.13 ± 0.24 µM |

target: T1, α-glucosidase; test: Enzyme kinetic study; format: biochemical; conditions: not given

| Structure (SMILES) | Ki |
| --- | --- |
| Cc1ccc(-c2c(N)c(-c3ccc(Cl)cc3)n3nc(-c4ccccc4)nc3c2C#N)cc1 [Compound 15j, 6-Amino-5-(4-chlorophenyl)-2-phenyl-7-(p-tolyl)-^1,2,4triazolo[1,5-a]pyridine-8-carbonitrile] | 6.6 µM |

same assay, conditions: Lineweaver-Burk plot: Km increases, Vmax unchanged

| Structure (SMILES) | α-glucosidase inhibition mode |
| --- | --- |
| Cc1ccc(-c2c(N)c(-c3ccc(Cl)cc3)n3nc(-c4ccccc4)nc3c2C#N)cc1 [Compound 15j, 6-Amino-5-(4-chlorophenyl)-2-phenyl-7-(p-tolyl)-^1,2,4triazolo[1,5-a]pyridine-8-carbonitrile] | competitive |

same assay, conditions: enzyme treated with 6.6 µM compound 15j; untreated 62.5

| Structure (SMILES) | Maximum velocity (Vm) of the treated enzyme |
| --- | --- |
| Cc1ccc(-c2c(N)c(-c3ccc(Cl)cc3)n3nc(-c4ccccc4)nc3c2C#N)cc1 [Compound 15j, 6-Amino-5-(4-chlorophenyl)-2-phenyl-7-(p-tolyl)-^1,2,4triazolo[1,5-a]pyridine-8-carbonitrile] | 62.5 (nmol min^− 1) |

system: α-amylase; test: not given; conditions: 100 µM

| Structure (SMILES) | inhibition |
| --- | --- |
| C[C@H]1O[C@H](O[C@H]2[C@H](O)[C@@H](O)[C@@H](O[C@H]3[C@H](O)[C@@H](O)C(O)O[C@@H]3CO)O[C@@H]2CO)[C@H](O)[C@@H](O)[C@@H]1N[C@H]1C=C(CO)[C@@H](O)[C@H](O)[C@H]1O (some centres unmarked) [Acarbose] | 50.1 ± 0.5% |

From article PMC12098659 (Scientific Reports, 2025)
